Where two headings read alike, the source gives them in different places.

For this test, the target named is BRAF V600E (Homo sapiens, UniProt P15056, V600E). Description: HiBiT cellular BRAF^V600E degradation assay. The class given is cell-based. The conditions noted are these: for DC50: concentration at which 50% of total cellular BRAF^V600E is degraded; for Emax: read-out: HiBit 24 h Emax.
Setting [1] is: A375.10 cells, 24 h, residual protein remaining in the cell.

Sequence of BRAF V600E (P15056 whole entry V600E): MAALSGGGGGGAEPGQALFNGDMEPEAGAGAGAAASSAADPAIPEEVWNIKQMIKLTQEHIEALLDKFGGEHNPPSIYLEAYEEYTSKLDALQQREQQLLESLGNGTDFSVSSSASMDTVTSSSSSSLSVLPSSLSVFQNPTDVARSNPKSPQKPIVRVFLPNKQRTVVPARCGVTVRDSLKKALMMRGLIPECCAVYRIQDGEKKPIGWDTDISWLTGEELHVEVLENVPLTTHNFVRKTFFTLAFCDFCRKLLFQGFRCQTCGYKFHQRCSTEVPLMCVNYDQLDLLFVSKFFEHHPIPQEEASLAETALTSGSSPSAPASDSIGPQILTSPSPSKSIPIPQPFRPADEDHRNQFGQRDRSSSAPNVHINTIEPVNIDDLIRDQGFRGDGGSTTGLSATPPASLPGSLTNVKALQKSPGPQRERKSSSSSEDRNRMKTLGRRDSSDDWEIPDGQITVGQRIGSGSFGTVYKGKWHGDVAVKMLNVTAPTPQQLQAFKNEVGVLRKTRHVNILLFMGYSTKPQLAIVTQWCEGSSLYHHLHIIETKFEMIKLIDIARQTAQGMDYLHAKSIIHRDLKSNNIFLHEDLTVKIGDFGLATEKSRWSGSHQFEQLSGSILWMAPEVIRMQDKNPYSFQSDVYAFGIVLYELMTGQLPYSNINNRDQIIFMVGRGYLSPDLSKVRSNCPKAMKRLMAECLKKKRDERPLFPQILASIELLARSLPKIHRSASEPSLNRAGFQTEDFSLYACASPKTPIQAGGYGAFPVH

For `CCN(C)S(=O)(=O)Nc1ccc(F)c(Oc2ccc3ncn(-c4cnc(N5CCN(C(=O)CN6CCC(c7ccc(N[C@@H]8CCC(=O)NC8=O)cc7F)CC6)CC5)nc4)c(=O)c3c2OC)c1C#N` [Example 99, 6-[2-cyano-3-[[ethyl(methyl)sulfamoyl]amino]-6-fluorophenoxy]-3-[2-[4-[2-[4-[4-[[(3R)-2,6-dioxopiperidin-3-yl]amino]-2-fluorophenyl]piperidin-1-yl]acetyl]piperazin-1-yl]pyrimidin-5-yl]-5-methoxy-4-oxoquinazoline], for the setting “A375.10 cells, 24 h”, it took 34.2 nM to reach half-maximal degradation (DC50). For the same compound, under setting [1], the maximum response (Emax) was 11.4%.
The like results for `CCN(C)S(=O)(=O)Nc1ccc(F)c(Oc2ccc3ncn(-c4cnc(N5CCN(C(=O)CN6CCC(c7ccc(N[C@H]8CCC(=O)NC8=O)cc7F)CC6)CC5)nc4)c(=O)c3c2OC)c1C#N` [Example 100, 6-[2-cyano-3-[[ethyl(methyl)sulfamoyl]amino]-6-fluorophenoxy]-3-[2-[4-[2-[4-[4-[[(3S)-2,6-dioxopiperidin-3-yl]amino]-2-fluorophenyl]piperidin-1-yl]acetyl]piperazin-1-yl]pyrimidin-5-yl]-5-methoxy-4-oxoquinazoline] were, in that order, 16.4 nM and 8.4%.
The corresponding values for `CCN(C)S(=O)(=O)Nc1ccc(F)c(Oc2ccc3ncn(-c4cnc(N5CCN(C(=O)CN6CCC(c7ccc(N[C@@H]8CCC(=O)NC8=O)cc7F)CC6)CC5)nc4)c(=O)c3c2N)c1C#N` [Example 101, 5-amino-6-[2-cyano-3-[[ethyl(methyl)sulfamoyl]amino]-6-fluorophenoxy]-3-[2-[4-[2-[4-[4-[[(3R)-2,6-dioxopiperidin-3-yl]amino]-2-fluorophenyl]piperidin-1-yl]acetyl]piperazin-1-yl]pyrimidin-5-yl]-4-oxoquinazoline] are 27.7 nM and 11.6%.
In the case of `N#Cc1c(NS(=O)(=O)C2CCCCC2)ccc(F)c1Oc1ccc2ncn(-c3cnc(N4CCN(C(=O)CN5CCC(c6ccc(N[C@H]7CCC(=O)NC7=O)cc6F)CC5)CC4)nc3)c(=O)c2c1` [Example 105, N-[2-cyano-3-[3-[2-[4-[2-[4-[4-[[(3S)-2,6-dioxopiperidin-3-yl]amino]-2-fluorophenyl]piperidin-1-yl]acetyl]piperazin-1-yl]pyrimidin-5-yl]-4-oxoquinazolin-6-yl]oxy-4-fluorophenyl]cyclohexanesulfonamide], the maximum response (Emax) was determined as 11.8%. Also, it took 17.7 nM to reach half-maximal degradation (A375.10 cells, 24 h) (DC50).
The corresponding values for `N#Cc1c(NS(=O)(=O)N2CCCCC2)ccc(F)c1Oc1ccc2ncn(-c3cnc(N4CCN(C(=O)CN5CCC(c6ccc(N[C@@H]7CCC(=O)NC7=O)cc6F)CC5)CC4)nc3)c(=O)c2c1` [Example 106, N-[2-cyano-3-[3-[2-[4-[2-[4-[4-[[(3R)-2,6-dioxopiperidin-3-yl]amino]-2-fluorophenyl]piperidin-1-yl]acetyl]piperazin-1-yl]pyrimidin-5-yl]-4-oxoquinazolin-6-yl]oxy-4-fluorophenyl]piperidine-1-sulfonamide] are 16.7% and 43.6 nM.
As to `N#Cc1c(NS(=O)(=O)N2CCCC2)ccc(F)c1Oc1ccc2ncn(-c3cnc(N4CCN(C(=O)CN5CCC(c6ccc(N[C@H]7CCC(=O)NC7=O)cc6F)CC5)CC4)nc3)c(=O)c2c1` [Example 107, N-[2-cyano-3-[3-[2-[4-[2-[4-[4-[[(3S)-2,6-dioxopiperidin-3-yl]amino]-2-fluorophenyl]piperidin-1-yl]acetyl]piperazin-1-yl]pyrimidin-5-yl]-4-oxoquinazolin-6-yl]oxy-4-fluorophenyl]pyrrolidine-1-sulfonamide], the maximal effect (Emax) turned out to be 9.8%. Moreover, it took 12.9 nM to reach half-maximal degradation (A375.10 cells, 24 h) (DC50).
In turn, `N#Cc1c(NS(=O)(=O)C2CCCC2)ccc(F)c1Oc1ccc2ncn(-c3cnc(N4CCN(C(=O)CN5CCC(c6ccc(N[C@@H]7CCC(=O)NC7=O)cc6F)CC5)CC4)nc3)c(=O)c2c1` [Example 108, N-[2-cyano-3-[3-[2-[4-[2-[4-[4-[[(3R)-2,6-dioxopiperidin-3-yl]amino]-2-fluorophenyl]piperidin-1-yl]acetyl]piperazin-1-yl]pyrimidin-5-yl]-4-oxoquinazolin-6-yl]oxy-4-fluorophenyl]cyclopentanesulfonamide] came in with a DC50 (A375.10 cells, 24 h) of 17.8 nM. Also, the Emax under setting [1] was found to be 10.9%.
The like results for `N#Cc1c(NS(=O)(=O)C2CCCC2)ccc(F)c1Oc1ccc2ncn(-c3cnc(N4CCN(C(=O)CN5CCC(c6ccc(N[C@H]7CCC(=O)NC7=O)cc6F)CC5)CC4)nc3)c(=O)c2c1` [Example 109, N-[2-cyano-3-[3-[2-[4-[2-[4-[4-[[(3S)-2,6-dioxopiperidin-3-yl]amino]-2-fluorophenyl]piperidin-1-yl]acetyl]piperazin-1-yl]pyrimidin-5-yl]-4-oxoquinazolin-6-yl]oxy-4-fluorophenyl]cyclopentanesulfonamide] were, in that order, 12.5 nM and 9.04%.
`CO[C@H]1CCN(S(=O)(=O)Nc2ccc(F)c(Oc3ccc4ncn(-c5cnc(N6CCN(C(=O)CN7CCC(c8ccc(N[C@@H]9CCC(=O)NC9=O)cc8F)CC7)CC6)nc5)c(=O)c4c3)c2C#N)C1` [Example 110, (3S)—N-[2-cyano-3-[3-[2-[4-[2-[4-[4-[[(3R)-2,6-dioxopiperidin-3-yl]amino]-2-fluorophenyl]piperidin-1-yl]acetyl]piperazin-1-yl]pyrimidin-5-yl]-4-oxoquinazolin-6-yl]oxy-4-fluorophenyl]-3-methoxypyrrolidine-1-sulfonamide]: the DC50 (A375.10 cells, 24 h) was determined as 42.5 nM. The Emax under setting [1] turned out to be 8.22%.
The corresponding values for `CO[C@H]1CCN(S(=O)(=O)Nc2ccc(F)c(Oc3ccc4ncn(-c5cnc(N6CCN(C(=O)CN7CCC(c8ccc(N[C@H]9CCC(=O)NC9=O)cc8F)CC7)CC6)nc5)c(=O)c4c3)c2C#N)C1` [Example 111, (3S)—N-[2-cyano-3-[3-[2-[4-[2-[4-[4-[[(3S)-2,6-dioxopiperidin-3-yl]amino]-2-fluorophenyl]piperidin-1-yl]acetyl]piperazin-1-yl]pyrimidin-5-yl]-4-oxoquinazolin-6-yl]oxy-4-fluorophenyl]-3-methoxypyrrolidine-1-sulfonamide] are 18.6 nM and 10.3%.
The corresponding values for `CC(C)S(=O)(=O)Nc1ccc(F)c(Oc2ccc3ncn(-c4cnc(N5CCN(C(=O)CN6CCC(c7ccc(N[C@H]8CCC(=O)NC8=O)cc7F)CC6)CC5)nc4)c(=O)c3c2)c1C#N` [Example 112, N-[2-cyano-3-[3-[2-[4-[2-[4-[4-[[(3S)-2,6-dioxopiperidin-3-yl]amino]-2-fluorophenyl]piperidin-1-yl]acetyl]piperazin-1-yl]pyrimidin-5-yl]-4-oxoquinazolin-6-yl]oxy-4-fluorophenyl]propane-2-sulfonamide] are 6.47 nM and 8.79%.
The corresponding values for `N#Cc1c(NS(=O)(=O)N2CCCCC2)ccc(F)c1Oc1ccc2ncn(-c3cnc(N4CCN(C(=O)CN5CCC(c6ccc(N[C@H]7CCC(=O)NC7=O)cc6F)CC5)CC4)nc3)c(=O)c2c1` [Example 113, N-[2-cyano-3-[3-[2-[4-[2-[4-[4-[[(3S)-2,6-dioxopiperidin-3-yl]amino]-2-fluorophenyl]piperidin-1-yl]acetyl]piperazin-1-yl]pyrimidin-5-yl]-4-oxoquinazolin-6-yl]oxy-4-fluorophenyl]piperidine-1-sulfonamide] are 29.7 nM and 11.1%.
Compound `N#Cc1c(NS(=O)(=O)C2CC2)ccc(F)c1Oc1ccc2ncn(-c3cnc(N4CCN(C(=O)CN5CCC(c6ccc(N[C@H]7CCC(=O)NC7=O)cc6F)CC5)CC4)nc3)c(=O)c2c1` [Example 114, N-[2-cyano-3-[3-[2-[4-[2-[4-[4-[[(3S)-2,6-dioxopiperidin-3-yl]amino]-2-fluorophenyl]piperidin-1-yl]acetyl]piperazin-1-yl]pyrimidin-5-yl]-4-oxoquinazolin-6-yl]oxy-4-fluorophenyl]cyclopropanesulfonamide] registered a 50% degradation concentration (DC50) (A375.10 cells, 24 h) of 8.33 nM. Under setting [1], the maximum response (Emax) is 9.6%.
The like results for `N#Cc1c(NS(=O)(=O)C2CC2)ccc(F)c1Oc1ccc2ncn(-c3cnc(N4CCN(C(=O)CN5CCC(c6ccc(N[C@@H]7CCC(=O)NC7=O)cc6F)CC5)CC4)nc3)c(=O)c2c1` [Example 115, N-[2-cyano-3-[3-[2-[4-[2-[4-[4-[[(3R)-2,6-dioxopiperidin-3-yl]amino]-2-fluorophenyl]piperidin-1-yl]acetyl]piperazin-1-yl]pyrimidin-5-yl]-4-oxoquinazolin-6-yl]oxy-4-fluorophenyl]cyclopropanesulfonamide] were, in that order, 16.1 nM and 12.8%.
The like results for `N#Cc1c(NS(=O)(=O)N2CC[C@@H](F)C2)ccc(F)c1Oc1ccc2ncn(-c3cnc(N4CCN(C(=O)CN5CCC(c6ccc(N[C@H]7CCC(=O)NC7=O)cc6F)CC5)CC4)nc3)c(=O)c2c1` [Example 116, (3R)—N-[2-cyano-3-[3-[2-[4-[2-[4-[4-[[(3S)-2,6-dioxopiperidin-3-yl]amino]-2-fluorophenyl]piperidin-1-yl]acetyl]piperazin-1-yl]pyrimidin-5-yl]-4-oxoquinazolin-6-yl]oxy-4-fluorophenyl]-3-fluoropyrrolidine-1-sulfonamide] were, in that order, 17.1 nM and 9.01%.
The corresponding values for `COC1CN(S(=O)(=O)Nc2ccc(F)c(Oc3ccc4ncn(-c5cnc(N6CCN(C(=O)CN7CCC(c8ccc(N[C@H]9CCC(=O)NC9=O)cc8F)CC7)CC6)nc5)c(=O)c4c3)c2C#N)C1` [Example 117, N-[2-cyano-3-[3-[2-[4-[2-[4-[4-[[(3S)-2,6-dioxopiperidin-3-yl]amino]-2-fluorophenyl]piperidin-1-yl]acetyl]piperazin-1-yl]pyrimidin-5-yl]-4-oxoquinazolin-6-yl]oxy-4-fluorophenyl]-3-methoxyazetidine-1-sulfonamide] are 38.3 nM and 9.02%.
The compound `CC(C)S(=O)(=O)Nc1ccc(F)c(Oc2ccc3ncn(-c4cnc(N5CCN(C(=O)CN6CCC(c7ccc(N[C@@H]8CCC(=O)NC8=O)cc7F)CC6)CC5)nc4)c(=O)c3c2)c1C#N` [Example 118, N-[2-cyano-3-[3-[2-[4-[2-[4-[4-[[(3R)-2,6-dioxopiperidin-3-yl]amino]-2-fluorophenyl]piperidin-1-yl]acetyl]piperazin-1-yl]pyrimidin-5-yl]-4-oxoquinazolin-6-yl]oxy-4-fluorophenyl]propane-2-sulfonamide] yielded a DC50 (A375.10 cells, 24 h) of 18.7 nM. The Emax under setting [1] came out at 9.98%.
